{"source": "patent US7288554B2", "about": "“Ortho-substituted aryl amides for controlling invertebrate pests” (E.I. du Pont de Nemours and Company, priority 2001, dated 2007)"}
{"smiles": "Cc1cccc(S(=O)(=O)NC(C)C)c1NC(=O)c1cc(C(F)(F)F)nn1-c1ncccc1Cl", "note": "[Compound B3, 1-(3-Chloro-2-pyridinyl)-N-[2-methyl-6-[[(1-methylethyl)amino]sulfonyl]phenyl]-3-(trifluoromethyl)-1H-pyrazole-5-carboxamide]", "values": [{"measurement": "melting point", "value": "69 to 73", "unit": "°C"}]}
